ChEMBL document CHEMBL6087486, “Monomeric or Homodimer Conjugates of Fibroblast Activation Protein Inhibitor and Cyanine 7 Bearing a Meso-Chloride as Near-Infrared Fluorescence Probes: Design, Synthesis, and Comparative In Vivo Imaging of Distinct Breast Cancer Subtypes” (J Med Chem, 2025)
The source made the active and inactive calls. The rule behind the calls is not given here.

What was measured:
[1] = MRT (0 to infinity) in ICR mouse at 2 mg/kg, iv measured upto 24 hrs by LC-MS/MS analysis; assay type: ADME, organism-based; conditions: in vivo
[2] = Toxicity in mouse xenografted with human MCF7 cells assessed as change in body weight at 10 to 20 mg/kg, iv administered on days 1, 6, 11 and 16 measured for 21 days; assay type: organism-based; conditions: in vivo, 504 h, dose 10-20 mg/kg, time 21 day
MCF7 [3] = test: Antitumor activity against human MCF7 cells xenografted in mouse assessed as tumor growth inhibition administered intravenously on days 1, 6, 11 and 16 measured on day 21; assay type: functional; conditions: dose 10-20 mg/kg, route iv, time 21.0 day
[4] = C0 in ICR mouse at 2 mg/kg, iv measured upto 24 hrs by LC-MS/MS analysis; assay type: ADME, organism-based; conditions: in vivo
[5] = Metabolic stability in human liver microsomes assessed as intrinsic clearance; assay type: ADME, Microsome; conditions: read-out: CLH
[6] = Apparent volume of distribution in ICR mouse at 2 mg/kg, iv measured upto 24 hrs by LC-MS/MS analysis; assay type: ADME, organism-based; conditions: in vivo, read-out: Vz
MDA-MB-231 [7] = test: Cytotoxicity against human MDA-MB-231 cells assessed as survival rate upto 20 uM after 24 hrs by CCK8 assay relative to control; assay type: functional; conditions: up to 20 µM
MCF7 [8] = test: Antitumor activity against human MCF7 cells xenografted in mouse assessed as obvious effect at 10 to 20 mg/kg, iv administered on days 1, 6, 11 and 16 measured on day 21; assay type: functional, organism-based; conditions: dose 10-20 mg/kg, time 21.0 day
[9] = Volume of distribution at steady state in ICR mouse at 2 mg/kg, iv measured upto 24 hrs by LC-MS/MS analysis; assay type: ADME, organism-based; conditions: in vivo, read-out: Vdss
[10] = Ratio of drug uptake in tumor to liver of NCG mouse xenografted with human MCF7 cells at 15 uM, iv measured after 72 hrs by IVIS analysis; assay type: ADME, organism-based; conditions: in vivo
[11] = Tlast in ICR mouse at 2 mg/kg, iv measured upto 24 hrs by LC-MS/MS analysis; assay type: ADME, organism-based; conditions: in vivo
[12] = Metabolic stability in mouse liver microsomes assessed as half life; assay type: ADME, Microsome
[13] = Ratio of drug uptake in tumor to liver of NCG mouse xenografted with human MDA-MB-231 cells at 15 uM, iv measured after 48 hrs by IVIS analysis; assay type: ADME, organism-based; conditions: in vivo
[14] = Biodistribution in tumor of NCG mouse xenografted with human MDA-MB-231 cells at 15 uM, iv measured for 24 hrs by IVIS analysis; assay type: ADME, organism-based, Neoplasm; conditions: in vivo
[15] = Biodistribution in liver of NCG mouse xenografted with human MDA-MB-231 cells at 15 uM, iv measured for 24 hrs by IVIS analysis; assay type: ADME, organism-based; conditions: in vivo
[16] = Absorption property of compound in methanol assessed as maximal wavelength at 0.5 to 4 uM by UV-vis spectrophotometry; assay type: physicochemical; conditions: dose 0.5-4 µM
[17] = Clearance in ICR mouse at 2 mg/kg, iv measured upto 24 hrs by LC-MS/MS analysis; assay type: ADME, organism-based; conditions: in vivo
[18] = Drug uptake in human MDA-MB-231 cells assessed as fold increase in fluorescence intensity at 2 uM incubated for 2 hrs by CLSM analysis relative to control; assay type: functional
[19] = Metabolic stability in mouse liver microsomes assessed as intrinsic clearance; assay type: ADME, Microsome; conditions: read-out: CLH
[20] = Biodistribution in tumor of NCG mouse xenografted with human MCF7 cells at 15 uM, iv measured after 1 to 2 hrs by IVIS analysis; assay type: ADME, organism-based, Neoplasm; conditions: in vivo, time 1-2 hrs
[21] = Half life in ICR mouse at 2 mg/kg, iv measured upto 24 hrs by LC-MS/MS analysis; assay type: ADME, organism-based; conditions: in vivo
[22] = MRT (0 to t) in ICR mouse at 2 mg/kg, iv measured upto 24 hrs by LC-MS/MS analysis; assay type: ADME, organism-based; conditions: in vivo
[23] = Biodistribution in tumor of NCG mouse xenografted with human MDA-MB-231 cells assessed as maximum fluorescence intensity at 15 uM, iv measured for 24 hrs by IVIS analysis; assay type: ADME, organism-based, Neoplasm; conditions: in vivo
[24] = Metabolic stability in human liver microsomes assessed as hepatic clearance rate; assay type: ADME, Microsome; conditions: read-out: CLH
[25] = Biodistribution in liver of NCG mouse xenografted with human MCF7 cells at 15 uM, iv measured after 0.5 hrs by IVIS analysis; assay type: ADME, organism-based; conditions: in vivo
[26] = Metabolic stability in human liver microsomes assessed as half life; assay type: ADME, Microsome
MDA-MB-231 [27] = test: Cytotoxicity against human MDA-MB-231 cells at; assay type: functional, cell-based; conditions: dose < 2.0 µM, time 24.0 hrs
[28] = Metabolic stability in mouse liver microsomes assessed as hepatic clearance rate; assay type: ADME, Microsome; conditions: read-out: CLH
[29] = AUC (0 to t) in ICR mouse at 2 mg/kg, iv measured upto 24 hrs by LC-MS/MS analysis; assay type: ADME, organism-based; conditions: in vivo
[30] = Biodistribution in tumor of NCG mouse xenografted with human MCF7 cells assessed as maximum fluorescence intensity at 15 uM, iv measured after 8 hrs by IVIS analysis; assay type: ADME, organism-based, Neoplasm; conditions: in vivo
[31] = AUC (0 to infinity) in ICR mouse at 2 mg/kg, iv measured upto 24 hrs by LC-MS/MS analysis; assay type: ADME, organism-based; conditions: in vivo
MCF7 [32] = test: Antitumor activity against human MCF7 cells xenografted in mouse assessed as tumor shrinkage at 20 mg/kg, iv administered on days 1, 6, 11 and 16 measured on day 10; assay type: functional, organism-based; conditions: time 10.0 day
[33] = Drug uptake in human MCF7 cells assessed as fold increase in fluorescence intensity at 2 uM incubated for 2 hrs by CLSM analysis relative to control; assay type: functional
MCF7 [34] = test: Antitumor activity against human MCF7 cells xenografted in mouse assessed as decrease in tumor volume at 10 mg/kg, iv administered on days 1, 6, 11 and 16 measured on day 10; assay type: functional, organism-based; conditions: time 10.0 day
MCF7 [35] = test: Cytotoxicity against human MCF7 cells at 20 uM after 24 hrs by CCK8 assay relative to control; assay type: functional
MCF7 [36] = test: Cytotoxicity against human MCF7 cells at; assay type: functional, cell-based; conditions: dose < 2.0 µM, time 24.0 hrs
[37] = Emission property of compound in methanol assessed as maximal wavelength at 0.5 to 4 uM by […]; assay type: physicochemical; conditions: dose 0.5-4 µM
MCF7 [38] = test: Cytotoxicity against human MCF7 cells at >=5 uM after 24 hrs by CCK8 assay; assay type: functional, cell-based
[39] = Biodistribution in tumor of NCG mouse xenografted with human MDA-MB-231 cells assessed as maximum fluorescence intensity at 15 uM, iv measured for 2 to 48 hrs by IVIS analysis; assay type: ADME, organism-based, Neoplasm; conditions: in vivo, time 2-48 hrs
[40] = Biodistribution in liver of NCG mouse xenografted with human MCF7 cells at 15 uM, iv measured after 4 hrs by IVIS analysis; assay type: ADME, organism-based; conditions: in vivo
[41] = Biodistribution in tumor of NCG mouse xenografted with human MDA-MB-231 cells assessed as increase in retention time at 15 uM, iv measured for 0.5 to 72 hrs by IVIS analysis; assay type: ADME, organism-based, Neoplasm; conditions: in vivo, time 0.5-72 hrs
[42] = Biodistribution in tumor of NCG mouse xenografted with human MDA-MB-231 cells assessed as fluorescence intensity at 15 uM, iv measured after 4 hrs by IVIS analysis; assay type: ADME, organism-based, Neoplasm; conditions: in vivo
[43] = Biodistribution in tumor of NCG mouse xenografted with human MDA-MB-231 cells 15 uM, iv measured upto 72 hrs by IVIS analysis; assay type: ADME, organism-based, Neoplasm; conditions: in vivo
[44] = Ratio of drug uptake in tumor to liver of NCG mouse xenografted with human MDA-MB-231 cells at 15 uM, iv measured upto 72 hrs by IVIS analysis; assay type: ADME, organism-based; conditions: in vivo
[45] = Biodistribution in tumor of NCG mouse xenografted with human MCF7 cells assessed as increase in retention time at 15 uM, iv measured for 0.5 to 72 hrs by IVIS analysis; assay type: ADME, organism-based, Neoplasm; conditions: in vivo, time 0.5-72 hrs
MCF7 [46] = test: Cytotoxicity against human MCF7 cells assessed as survival rate at 20 uM after 24 hrs by CCK8 assay relative to control; assay type: functional; conditions: read-out: Survival
MDA-MB-231 [47] = test: Cytotoxicity against human MDA-MB-231 cells assessed as survival rate at 20 uM after 24 hrs by CCK8 assay relative to control; assay type: functional; conditions: read-out: Survival
[48] = Biodistribution in tumor of NCG mouse xenografted with human MCF7 cells at 15 uM, iv measured for 0.5 to 72 hrs by IVIS analysis; assay type: ADME, organism-based, Neoplasm; conditions: in vivo, time 0.5-72 hrs
MDA-MB-231 [49] = test: Cytotoxicity against human MDA-MB-231 cells at >25 uM after 24 hrs by CCK8 assay; assay type: functional, cell-based
MCF7 [50] = test: Cytotoxicity against human MCF7 cells at >25 uM after 24 hrs by CCK8 assay; assay type: functional, cell-based

Row | Compound | MRT inf [1] [min] | C0 at 24 h [4] [ng/mL] | microsomal CLint [5] [µL/min/mg] | Vd [6] [L/kg] | Vd [9] [L/kg] | Ratio [10] | Tlast [11] [h] | half-life [12] [min] | Activity [16] [nm] | clearance [17] [mL/min/kg] | fold change (FC) [18] | microsomal CLint [19] [µL/min/mg] | half-life [21] [min] | MRT last at 24 h [22] [min] | CLint scaled [24] [mL/min/kg] | half-life [26] [min] | Activity (MDA-MB-231 [27]) | CLint scaled [28] [mL/min/kg] | AUC(0-t) at 24 h [29] [ng·h/mL] | AUC(0-inf) [31] [ng·h/mL] | further results
1 | C#CCCCN1/C(=C/C=C2\CCCC(/C=C/C3=[N+](CCCc4cn(CCOCCOCCOCCOCCC(=O)N5CCN(CCCN(C)c6ccc7nccc(C(=O)NCC(=O)N8CC(F)(F)C[C@H]8C#N)c7c6)CC5)nn4)c4ccccc4C3(C)C)=C2Cl)C(C)(C)c2ccccc21 | 11.4 | 829 | 253 | 3.92 | 2.45 | 2.43 | 1.5 | 4.3 | 783 | 204 | 431 | 325 | 12.5 | 10.4 | 228 | 5.5 | inactive | 1290 | 165 | 166 | Activity [2]: Non-toxic; inhibition (MCF7 [3]): Dose-dependent-effect; Survival (MDA-MB-231 [7]): ~80%; Activity (MCF7 [8]): Active; Ratio [13]: 4.47; Drug uptake [14]: Active; Drug uptake [15]: Not_active; Drug uptake [20]: Active; Flu intensity [23]: 8.43 10^7No_unit; Drug uptake [25]: Not_active; Flu intensity [30]: 6.13 10^7No_unit; Activity (MCF7 [32]): Active; fold change (FC) [33]: 280; Activity (MCF7 [34]): inactive; Activity (MCF7 [35]): 4.5%; Activity (MCF7 [36]): inactive; Activity [37]: 820 nm; Activity (MCF7 [38]): Active
2 | CN(CCCN1CCN(C(=O)CCOCCOCCOCCOCCn2cc(CCCN3/C(=C/C=C4\CCCC(/C=C/C5=[N+](CCCc6cn(CCOCCOCCOCCOCCC(=O)N7CCN(CCCN(C)c8ccc9nccc(C(=O)NCC(=O)N%10CC(F)(F)C[C@H]%10C#N)c9c8)CC7)nn6)c6ccccc6C5(C)C)=C4Cl)C(C)(C)c4ccccc43)nn2)CC1)c1ccc2nccc(C(=O)NCC(=O)N3CC(F)(F)C[C@H]3C#N)c2c1 | 63.6 | 16800 | 430 | 9.15 | 0.583 | 2.07 | 24 | 4.4 | 784 | 9 | 81 | 313 | 690 | 36.2 | 387 | 3.2 | inactive | 1240 | 3600 | 3650 | Flu intensity [39]: 2.5 10^8No_unit; Drug uptake [40]: Not_active; Drug uptake [41]: Active; Flu intensity [42]: > 2 10^8No_unit; Drug uptake [43]: Active; Ratio [44]: > 3; Drug uptake [45]: Active; viability at 20 µM (MCF7 [46]): 60%; viability at 20 µM (MDA-MB-231 [47]): 67%; fold change (FC) [33]: 45; Drug uptake [48]: Active; Activity (MCF7 [36]): inactive; Activity [37]: 823 nm
3 | CN(CCCN1CCN(C(=O)CN2CCN(CC(=O)O)CCN(CC(=O)O)CCN(CC(=O)O)CC2)CC1)c1ccc2nccc(C(=O)NCC(=O)N3CC(F)(F)C[C@H]3C#N)c2c1 |  |  |  |  |  |  |  |  |  |  |  |  |  |  |  |  |  |  |  |  | Activity (MDA-MB-231 [49]): Active; Activity (MCF7 [50]): Active
4 | CN(CCCN1CCN(C(=O)OC(C)(C)C)CC1)c1ccc2nccc(C(=O)NCC(=O)N3CC(F)(F)C[C@H]3C#N)c2c1 |  |  |  |  |  |  |  |  |  |  |  |  |  |  |  |  |  |  |  |  | Activity (MDA-MB-231 [49]): Active; Activity (MCF7 [50]): Active
